Laboratory results published in PubChem BioAssay (NCI).
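Step 1: Grow cells in 96-well plates. Step 2: Expose to compound for 48 hours at 5 concentrations. Step 3: Interpolate endpoints linearly; if unreached, use highest concentration. GI50 marks 50% less growth. The concentration for full growth arrest is given as TGI.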

Key:
Experiment in all cases: NCI anticancer screen, dose series, 48 h
[1] = system: 786-0 renal
[2] = system: A498 renal
[3] = system: A549 NSCLC
[4] = system: ACHN renal
[5] = system: BT-549 breast
[6] = system: CAKI-1 renal
[7] = system: CCRF-CEM leukemia
[8] = system: COLO 205 colon
[9] = system: DU-145 prostate
[10] = system: EKVX NSCLC
[11] = system: HCC-2998 colon
[12] = system: HCT-116 colon
[13] = system: HCT-15 colon
[14] = system: HL-60(TB) leukemia
[15] = system: HOP-62 NSCLC
[16] = system: HOP-92 NSCLC
[17] = system: HS 578T breast
[18] = system: HT29 colon
[19] = system: IGROV1 ovarian
[20] = system: K-562 leukemia
[21] = system: KM12 colon
[22] = system: LOX IMVI melanoma
[23] = system: M14 melanoma
[24] = system: MALME-3M melanoma
[25] = system: MCF7 breast
[26] = system: MDA-MB-231 breast
[27] = system: MDA-MB-435
[28] = system: MOLT-4 leukemia
[29] = system: NCI-H226 lung
[30] = system: NCI-H23 lung
[31] = system: NCI-H460 lung
[32] = system: NCI-H522 lung
[33] = system: NCI/ADR-RES ovarian
[34] = system: OVCAR-3 ovarian
[35] = system: OVCAR-4 ovarian
[36] = system: OVCAR-5 ovarian
[37] = system: OVCAR-8 ovarian
[38] = system: PC-3 prostate
[39] = system: RPMI-8226 leukemia
[40] = system: SF-268 CNS
[41] = system: SF-295 CNS
[42] = system: SF-539 CNS
[43] = system: SK-MEL-2 melanoma
[44] = system: SK-MEL-28 melanoma
[45] = system: SK-MEL-5 melanoma
[46] = system: SK-OV-3 ovarian
[47] = system: SN12C renal
[48] = system: SNB-19 CNS
[49] = system: SNB-75 CNS
[50] = system: SR leukemia
[51] = system: SW-620 colon
[52] = system: T-47D breast
[53] = system: TK-10 renal
[54] = system: U251 CNS
[55] = system: UACC-257 melanoma
[56] = system: UACC-62 melanoma
[57] = system: UO-31 renal
[58] = system: RXF 393 renal

CN1CCN(c2ccc(Nc3nc(NCCCNS(=O)(=O)c4ccc(Cl)cc4)c4sccc4n3)cc2)CC1
GI50 [1]: 2.12 µM | TGI [1]: 6.29 µM | GI50 [2]: 20.4 µM | TGI [2]: 34.8 µM | GI50 [3]: 18.7 µM | TGI [3]: 61.7 µM | GI50 [4]: 11.2 µM | TGI [4]: 23.2 µM | GI50 [5]: 3.12 µM | TGI [5]: 14.4 µM | GI50 [6]: 15.5 µM | TGI [6]: 28.8 µM | GI50 [7]: 4.22 µM | TGI [7]: > 100 µM | GI50 [8]: 15.6 µM | TGI [8]: 37.8 µM | GI50 [9]: 14 µM | TGI [9]: 28.9 µM | GI50 [10]: 14.1 µM | TGI [10]: 30 µM | GI50 [11]: 7.31 µM | TGI [11]: 20 µM | GI50 [12]: 2.3 µM | TGI [12]: 6.99 µM | GI50 [13]: 3.08 µM | TGI [13]: 12.4 µM | GI50 [14]: 2.12 µM | TGI [14]: 5.11 µM | GI50 [15]: 19.6 µM | TGI [15]: 37 µM | GI50 [16]: 2.16 µM | TGI [16]: 16.2 µM | GI50 [17]: 13.8 µM | TGI [17]: 44.7 µM | GI50 [18]: 3.75 µM | TGI [18]: 19.4 µM | GI50 [19]: 10.7 µM | TGI [19]: 22.8 µM | GI50 [20]: 2.95 µM | TGI [20]: > 100 µM | GI50 [21]: 16.4 µM | TGI [21]: 51.1 µM | GI50 [22]: 1.69 µM | TGI [22]: 3.48 µM | GI50 [23]: 2 µM | TGI [23]: 3.94 µM | GI50 [24]: 2.12 µM | TGI [24]: 3.91 µM | GI50 [25]: 6.47 µM | TGI [25]: 21.1 µM | GI50 [26]: 4.94 µM | TGI [26]: 17.3 µM | GI50 [27]: 9.17 µM | TGI [27]: 21.2 µM | GI50 [28]: 3.58 µM | TGI [28]: 33.4 µM | GI50 [29]: 12 µM | TGI [29]: 24.9 µM | GI50 [30]: 14.1 µM | TGI [30]: 29.1 µM | GI50 [31]: 8.01 µM | TGI [31]: 22 µM | GI50 [32]: 11.8 µM | TGI [32]: 27 µM | GI50 [33]: 19.4 µM | TGI [33]: 58.3 µM | GI50 [34]: 6.81 µM | TGI [34]: 35.9 µM | GI50 [35]: 12.2 µM | TGI [35]: 25.1 µM | GI50 [36]: 13.3 µM | TGI [36]: 27.4 µM | GI50 [37]: 8.57 µM | TGI [37]: 53.8 µM | GI50 [38]: 9.62 µM | TGI [38]: 26.4 µM | GI50 [39]: 3.04 µM | TGI [39]: 9.67 µM | GI50 [40]: 11.5 µM | TGI [40]: 34.9 µM | GI50 [41]: 12.2 µM | TGI [41]: 27 µM | GI50 [42]: 1.82 µM | TGI [42]: 3.55 µM | GI50 [43]: 17.2 µM | TGI [43]: 33.1 µM | GI50 [44]: 2.38 µM | TGI [44]: 6.22 µM | GI50 [45]: 10.2 µM | TGI [45]: 22 µM | GI50 [46]: 29 µM | TGI [46]: 60.9 µM | GI50 [47]: 12.9 µM | TGI [47]: 25.5 µM | GI50 [48]: 10.6 µM | TGI [48]: 22.4 µM | GI50 [49]: 13.5 µM | TGI [49]: 26.5 µM | GI50 [50]: 2.83 µM | TGI [50]: > 100 µM | GI50 [51]: 5.2 µM | TGI [51]: 18.6 µM | GI50 [52]: 22.1 µM | TGI [52]: 54.1 µM | GI50 [53]: 19.6 µM | TGI [53]: 35.7 µM | GI50 [54]: 4.06 µM | TGI [54]: 23.2 µM | GI50 [55]: 2.39 µM | TGI [55]: 6.44 µM | GI50 [56]: 3 µM | TGI [56]: 11.1 µM | GI50 [57]: 13 µM | TGI [57]: 25.7 µM

COc1cc2c3c(n(CCCN4CCC[C@H]4C(N)=O)c(=O)c2cc1OC)-c1cc2c(cc1C3=O)OCO2
GI50 [1]: 0.0392 µM | TGI [1]: 1.53 µM | TGI [2]: > 100 µM | GI50 [3]: 0.103 µM | TGI [3]: > 57.3 µM | GI50 [4]: 0.0274 µM | TGI [4]: 3.86 µM | GI50 [5]: 0.0707 µM | TGI [5]: 13.9 µM | GI50 [6]: 0.0162 µM | TGI [6]: 20.7 µM | GI50 [7]: < 0.0146 µM | TGI [7]: 4.6 µM | GI50 [8]: 0.223 µM | TGI [8]: > 100 µM | GI50 [9]: 0.0382 µM | TGI [9]: 12.6 µM | TGI [10]: > 100 µM | GI50 [11]: 0.224 µM | TGI [11]: 13.8 µM | GI50 [12]: 0.0322 µM | TGI [12]: 3.67 µM | GI50 [13]: 0.318 µM | TGI [13]: 5.8 µM | GI50 [14]: 0.0371 µM | TGI [14]: 3.7 µM | GI50 [15]: 0.0293 µM | TGI [15]: 12.7 µM | GI50 [16]: 0.808 µM | TGI [16]: > 29.5 µM | GI50 [17]: > 100 µM | TGI [17]: > 100 µM | GI50 [18]: 0.0674 µM | TGI [18]: 0.671 µM | GI50 [19]: 0.379 µM | TGI [19]: 34.9 µM | GI50 [20]: 0.041 µM | TGI [20]: 2.58 µM | GI50 [21]: 0.415 µM | TGI [21]: 11.1 µM | GI50 [22]: 0.0193 µM | TGI [22]: 0.485 µM | GI50 [23]: 0.0358 µM | TGI [23]: 2.46 µM | GI50 [24]: 0.375 µM | TGI [24]: > 57 µM | GI50 [25]: < 0.0107 µM | TGI [25]: 1.42 µM | GI50 [26]: 1.16 µM | TGI [26]: 16.2 µM | GI50 [27]: 0.148 µM | TGI [27]: 14 µM | GI50 [28]: < 0.0125 µM | TGI [28]: 0.178 µM | GI50 [29]: 0.0481 µM | TGI [29]: 1.18 µM | GI50 [30]: 0.0448 µM | TGI [30]: 2.32 µM | GI50 [31]: < 0.0152 µM | GI50 [32]: 0.0236 µM | TGI [32]: 4.48 µM | GI50 [33]: 0.154 µM | TGI [33]: > 100 µM | GI50 [34]: 0.161 µM | TGI [34]: 3.66 µM | GI50 [35]: 0.905 µM | TGI [35]: 5.69 µM | GI50 [36]: 0.319 µM | TGI [36]: 26.5 µM | GI50 [37]: 0.0783 µM | TGI [37]: 2.71 µM | GI50 [38]: 0.329 µM | TGI [38]: 22.6 µM | GI50 [39]: 0.0829 µM | TGI [39]: 2.36 µM | GI50 [58]: 0.167 µM | TGI [58]: 2.32 µM | GI50 [40]: 0.0398 µM | TGI [40]: > 100 µM | GI50 [41]: 0.0179 µM | TGI [41]: 15 µM | GI50 [42]: 0.0296 µM | TGI [42]: 0.541 µM | GI50 [43]: > 100 µM | TGI [43]: > 100 µM | GI50 [44]: 1.88 µM | TGI [44]: > 100 µM | GI50 [45]: 0.0407 µM | TGI [45]: 0.199 µM | GI50 [46]: 0.0396 µM | TGI [46]: 1.26 µM | GI50 [47]: 0.0422 µM | TGI [47]: > 52.4 µM | GI50 [48]: 0.0405 µM | TGI [48]: > 100 µM | GI50 [49]: 0.0301 µM | TGI [49]: 1.2 µM | TGI [50]: 0.54 µM | GI50 [51]: 0.0897 µM | TGI [51]: > 48.2 µM | GI50 [52]: 0.0313 µM | GI50 [53]: > 42.3 µM | TGI [53]: > 100 µM | GI50 [54]: 0.0249 µM | TGI [54]: 1.89 µM | GI50 [55]: 0.232 µM | TGI [55]: > 100 µM | GI50 [56]: 0.0193 µM | TGI [56]: 3.21 µM | GI50 [57]: 0.0409 µM | TGI [57]: > 41 µM
